Test results as given in patent EP1207395A1, “METHOD FOR MEASURING KINASE ACTIVITY OF CYCLIN/CDK COMPLEX” (Medical & Biological Laboratories Co., Ltd., priority 1999, dated 2001).

What was measured:
cyclin B/CDK1 complex = biological target: T1, cyclin B/CDK1 complex (Homo sapiens, UniProt P06493); type: biochemical; settings: ELISA method; RB301 substrate, 100 µM ATP; Figs. 2 and 6
T1 construct: 6xHis (N); made in house; host or cells: Sf9 insect cells (baculovirus)
Description: (§1) Clone 1C12 (specific to Thr356), clone 4E4 (specific to Ser612), and clone 2C4 (specific to Ser780) were used as the anti-phosphorylated RB monoclonal antibodies. Each anti-phosphorylated RB monoclonal antibody was diluted to a concentration of 10 µg/ml in PBS, and 100 µl of the diluted solution was added to each well of the plate followed by incubating at 4 °C for 15 hours. After removing the antibody solution, the reaction product in each well was blocked at 4°C for 24 hours in a PBS solution (5% sucrose, 0.1% NaN3) containing 2.5% of BSA. The plate was subjected to measurements after airdrying.
(§2) Cyclin D1/CDK4, cyclin A/CDK2, cyclin E/CDK2, and cyclin B/CDK1, respectively, were expressed in the sf9 cells using baculovirus, and were purified using a cobalt column and phospho-Cellulose column in order to use them as the cyclin/CDK complexes.
(§3) RB301 (10µg/ml), 100µM ATP, and respective Cyclin/CDK were added to the phosphate buffer (50 mM HEPES, 0.05% Triton X, 15 mM MgCl2, 2 mM EGTA, 200 µg/ml BSA) (final reaction volume of 180 µl), and was reacted for 30 minutes at 30°C. The reaction was stopped by adding 180 µl of PBS (10% skim milk, 350 mM NaCl, 50 mM EDTA) to each assay system.
(§4) After completing the phosphorylation reaction, 100 µl of each of the reaction solutions was added to the antibody sensitization plate, which was incubated at room temperature for 1 hour (primary reaction). […]

cyclin A/CDK2 complex = biological target: T2, cyclin A/CDK2 complex (Homo sapiens, UniProt P24941); experiment: ELISA method, inhibitory effect on cyclin A/CDK2 complex; type: biochemical; settings: RB301 substrate, 100 µM ATP, Figs. 3 and 7
T2 construct: 6xHis (N); made in house; host or cells: Sf9 insect cells (baculovirus)
Description: as §1, §2, §3, §4

PKC = settings: against PKC; nominal value of commercially available reagent; cited from earlier work
cyclin D1/CDK4 complex = biological target: T3, cyclin D1/CDK4 complex (Homo sapiens, UniProt P11802); experiment: ELISA method, inhibitory effect on cyclin D1/CDK4 complex; type: biochemical; settings: for OD levels (inhibitory effect): RB301 substrate, 100 µM ATP, Figs. 5 and 9
T3 construct: 6xHis (N); made in house; host or cells: Sf9 insect cells (baculovirus)
T3 sequence (P11802 whole entry): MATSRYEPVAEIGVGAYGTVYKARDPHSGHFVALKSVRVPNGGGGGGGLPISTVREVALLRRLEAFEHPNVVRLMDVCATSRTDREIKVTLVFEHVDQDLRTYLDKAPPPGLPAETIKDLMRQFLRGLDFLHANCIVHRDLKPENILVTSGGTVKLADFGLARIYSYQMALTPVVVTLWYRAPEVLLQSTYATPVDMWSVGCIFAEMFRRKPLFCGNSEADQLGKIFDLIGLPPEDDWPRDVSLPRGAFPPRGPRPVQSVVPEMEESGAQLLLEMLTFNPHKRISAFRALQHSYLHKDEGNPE
T3 sequence (P24385 whole entry partner): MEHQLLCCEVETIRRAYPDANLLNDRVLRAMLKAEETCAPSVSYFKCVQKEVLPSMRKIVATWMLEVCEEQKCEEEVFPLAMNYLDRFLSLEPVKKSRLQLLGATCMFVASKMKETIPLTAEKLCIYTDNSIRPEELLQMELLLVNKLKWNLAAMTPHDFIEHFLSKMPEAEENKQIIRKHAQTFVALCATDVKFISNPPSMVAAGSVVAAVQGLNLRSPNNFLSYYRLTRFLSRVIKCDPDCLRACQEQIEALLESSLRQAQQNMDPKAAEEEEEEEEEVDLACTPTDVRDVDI
Description: as §1
The RB amino acid sequence 301aa-928aa was expressed as a GST fusion protein in Escherichia coli, and the protein (RB301) purified using glutathione Sepharose and phosho-Cellulose columns (P11) was used as the substrate. Cyclin D1/CDK4, cyclin A/CDK2, cyclin E/CDK2, and cyclin B/CDK1, respectively, were expressed in the sf9 cells using baculovirus, and were purified using a cobalt column and phospho-Cellulose column in order to use them as the cyclin/CDK complexes.
as §3
After completing the phosphorylation reaction, 100 µl of each of the reaction solutions was added to the antibody sensitization plate, which was incubated at room temperature for 1 hour (primary reaction). After washing with PBS [washing solution: PBS (500 mM NaCl, 0.1% Tween 20)] five times using a wash-bottle, 100 µl of anti-GST polyclonal antibody solution (0.5 µg/ml) was added to each well of the microplate, followed by incubation at room temperature for 1 hour (secondary reaction). After washing with PBS [washing solution: PBS (500 mM NaCl, 0.1% Tween 20)] five times using a wash-bottle, 100 µl of HRP labeled anti-rabbit IgG antibody solution (20,000-fold dilution) was added to each well of the microplate, followed by incubation at room temperature for 30 minutes (tertiary reaction). Then, the reaction solution was colored (coloring reaction) at room temperature for 30 minutes using TMB (tetramethylbentidine).

cyclin E/CDK2 complex = biological target: T4, cyclin E/CDK2 complex (Homo sapiens, UniProt P24941); experiment: ELISA method, inhibitory effect on cyclin E/CDK2 complex; type: biochemical; settings: RB301 substrate, 100 µM ATP, Figs. 4 and 8
T4 construct: 6xHis (N); made in house; host or cells: Sf9 insect cells (baculovirus)
Description: as §1, §2, §3, §4

CDK4 [1] = biological target: T5, CDK4 (Homo sapiens, UniProt P11802); settings: reported in the literature (Meijer et al. 1997); cited from earlier work
T5 sequence (P11802 whole entry, species assumed): as the sequence (P11802 whole entry) above
T5 sequence (P24385 whole entry partner, species assumed): as the sequence (P24385 whole entry partner) above

CDK4 [2] = biological target: T5, CDK4; settings: against CDK4; nominal value; cited from earlier work
MEK = settings: inhibitor to MEK; nominal value of commercially available reagent; cited from earlier work
cdk2 = cdk2 (Homo sapiens, UniProt P24941); settings: against CDK2; nominal value; cited from earlier work

T1 sequence (P06493 whole entry): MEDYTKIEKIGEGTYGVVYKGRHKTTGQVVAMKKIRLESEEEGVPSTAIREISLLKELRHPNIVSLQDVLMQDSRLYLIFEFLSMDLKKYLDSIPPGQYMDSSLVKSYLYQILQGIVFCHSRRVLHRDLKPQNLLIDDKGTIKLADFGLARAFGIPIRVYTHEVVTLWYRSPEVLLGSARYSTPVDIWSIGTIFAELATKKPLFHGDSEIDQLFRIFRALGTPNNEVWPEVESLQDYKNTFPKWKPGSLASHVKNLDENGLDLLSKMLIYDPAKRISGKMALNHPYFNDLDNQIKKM
T1 sequence (P14635 whole entry partner): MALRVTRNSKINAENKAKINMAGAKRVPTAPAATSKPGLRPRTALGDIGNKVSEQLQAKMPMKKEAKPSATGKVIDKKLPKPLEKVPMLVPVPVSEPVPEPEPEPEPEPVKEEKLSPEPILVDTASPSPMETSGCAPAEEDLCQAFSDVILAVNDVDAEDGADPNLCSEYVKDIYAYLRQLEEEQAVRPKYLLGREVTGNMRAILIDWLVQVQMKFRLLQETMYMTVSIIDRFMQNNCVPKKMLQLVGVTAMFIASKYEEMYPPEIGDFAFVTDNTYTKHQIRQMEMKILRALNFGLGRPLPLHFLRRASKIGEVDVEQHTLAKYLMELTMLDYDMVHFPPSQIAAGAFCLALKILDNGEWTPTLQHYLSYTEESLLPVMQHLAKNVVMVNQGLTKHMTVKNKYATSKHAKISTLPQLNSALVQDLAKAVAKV

Row | Compound | OD levels (inhibitory effect) (cyclin B/CDK1 complex) | OD levels (inhibitory effect) (cyclin A/CDK2 complex) | Ki (PKC) [nM] | OD levels (inhibitory effect) (cyclin D1/CDK4 complex) | OD levels (inhibitory effect) (cyclin E/CDK2 complex) | inhibitory effect on cyclin D1/CDK4 compared with the other three cyclin/CDK complexes (cyclin D1/CDK4 complex) | inhibitory effect on cdk4 (CDK4 [1]) | IC50 (CDK4 [2]) [µM] | IC50 (MEK) [nM] | IC50 (cdk2) [µM]
1 | COC(=O)[C@@]1(O)C[C@H]2O[C@]1(C)n1c3ccccc3c3c4c(c5c6ccccc6n2c5c31)C(=O)NC4 [K252a] | decreased in a inhibitor concentration-dependent manner | decreased in a inhibitor concentration-dependent manner | 25 | decreased in a inhibitor concentration-dependent manner | decreased in a inhibitor concentration-dependent manner |  |  |  |  | 
2 | Cn1cnc2nc(NCCO)nc(NCc3ccccc3)c21 [Olomoucine-isomer] |  |  |  | almost no decrease in the OD value |  |  |  |  |  | 
3 | CC[C@H](CO)Nc1nc(NCc2ccccc2)c2ncn(C(C)C)c2n1 [Roscovitine] |  |  |  | decreased in a inhibitor concentration-dependent manner |  | weaker than those on the other three cyclin/CDK complexes | remarkably weak inhibitory effect |  |  | 
4 | N#CC(=C(/N)Sc1ccccc1N)/C(C#N)=C(\N)Sc1ccccc1N [U0126] |  | almost no decrease in the OD value |  | almost no decrease in the OD value | almost no decrease in the OD value |  |  | > 10 | 55 | > 10
